In patent US20030144346A1, “Methods and compositions for regulation of 5-alpha reductase activity” (priority 1997, published 2003):

Tests used:
[1] = biological target: T1, type 1 human 5α-reductase (HRED1) (Homo sapiens, UniProt P18405); assay: Whole cell assay of 5α-reductase, type 1 isoenzyme; format: cell-based; set-up: expressed in transfected cells; host or cells: rat 1A cells infected with pMV7 retrovirus; conditions: for HRED1 % Inhibition @ 100 μM / IC50 / inhibition at 100 µM: Table 7;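 on all read-outs here: intact rat 1A cells engineered to express the human type 1 5α-reductase isozyme serve as the enzyme source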
T1 sequence (P18405 1-259): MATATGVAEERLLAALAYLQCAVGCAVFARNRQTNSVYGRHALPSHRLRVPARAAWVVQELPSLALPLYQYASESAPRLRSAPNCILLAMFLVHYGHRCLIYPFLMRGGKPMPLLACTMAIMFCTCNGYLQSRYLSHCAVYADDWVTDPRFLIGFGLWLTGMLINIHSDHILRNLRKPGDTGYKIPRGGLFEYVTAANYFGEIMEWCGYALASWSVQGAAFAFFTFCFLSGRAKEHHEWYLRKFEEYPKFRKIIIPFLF

[2] = biological target: T2, type 2 human 5α-reductase (HRED2) (Homo sapiens, UniProt P31213); assay: Cell free assay of 5α-reductase, microsomes of rat 1A cells expressing type 2 isoenzyme (HRED2); format: biochemical; set-up: expressed in transfected cells; host or cells: rat 1A cells infected with pMV7 retrovirus; microsomes;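 further: labeled testosterone and its product dihydrotestosterone measured in microsomal reaction extracts via thin layer chromatography plus radioanalytic scanning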
T2 sequence (P31213 1-254): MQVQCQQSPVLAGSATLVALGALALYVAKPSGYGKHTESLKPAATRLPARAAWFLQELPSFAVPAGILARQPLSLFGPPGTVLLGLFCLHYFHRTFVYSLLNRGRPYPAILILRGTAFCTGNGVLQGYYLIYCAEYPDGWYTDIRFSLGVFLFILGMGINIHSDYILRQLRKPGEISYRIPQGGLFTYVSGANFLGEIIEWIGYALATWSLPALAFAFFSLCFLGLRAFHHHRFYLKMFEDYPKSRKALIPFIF

[3] = biological target: T1, type 1 human 5α-reductase (HRED1); assay: Cell free assay of 5α-reductase, microsomes of rat 1A cells expressing type 1 isoenzyme (HRED1); format: biochemical; set-up: expressed in transfected cells; host or cells: rat 1A cells infected with pMV7 retrovirus; microsomes;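 further: microsomes from rat 1A cells expressing human type 1 5α-reductase, conversion of radiolabeled testosterone to dihydrotestosterone quantified by thin layer chromatography with radioanalytic scanning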
[4] = biological target: T2, type 2 human 5α-reductase (HRED2); assay: Whole cell assay of 5α-reductase, type 2 isoenzyme; format: cell-based; set-up: expressed in transfected cells; host or cells: rat 1A cells infected with pMV7 retrovirus; conditions: for IC50: Table 7, read-out: HCRED2 IC50;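 on all read-outs here: intact rat 1A cells genetically modified to carry human type 2 5α-reductase served as the enzyme source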
[5] = whole cell assay, read-out: HCRED1 IC50
[6] = 100 μM, cell free assay, Table 5
[7] = cell free assay, Table 5 epigallocatechin derivatives, read-out: HRED2 IC50
[8] = cell free assay, Table 5 epigallocatechin derivatives, read-out: HRED1 IC50
[9] = 100 uM, cell free assay, Table 2, read-out: HRED2 % Inhibition @ 100 uM
[10] = cell free assay, Table 2 catechols, read-out: HRED2 IC50
[11] = 100 uM, cell free assay, Table 2, read-out: HRED1 % Inhibition @ 100 uM
[12] = cell free assay, Table 2 catechols, read-out: HRED1 IC50
[13] = 100 uM, cell free assay, Table 1, read-out: HRED2 % Inhibition @ 100 uM
[14] = cell free assay, Table 1 flavanoids, read-out: HRED2 IC50
[15] = 100 uM, cell free assay, Table 1, read-out: HRED1 % Inhibition @ 100 uM
[16] = cell free assay, Table 1 flavanoids, read-out: HRED1 IC50
[17] = 100 uM, cell free assay, Table 2
[18] = cell free assay, Table 6 fatty acids, read-out: HRED2 IC50
[19] = cell free assay, Table 6 fatty acids, read-out: HRED1 IC50

Compound | HRED1 % Inhibition @ 100 μM ([1]; whole cell assay) | IC50 [1, 5] | IC50 [4] | inhibition at 100 µM ([1]; whole cell assay) | IC50 [2, 10] | IC50 [3, 12] | inhibition at 100 µM ([4]; Table 7) | also measured
COc1cc(C(=O)OC2Cc3c(O)cc(O)cc3OC2c2cc(O)c(O)c(O)c2)cc(OC)c1OC (stereo not shown) [HZIV 63] | 12% | > 100 µM | > 100 µM | – | – | – | – | HRED2 % Inhibition @ 100 μM [2, 6]: 20%; IC50 [2, 7]: > 100 µM; HRED1 % Inhibition @ 100 μM [3, 6]: 94%; IC50 [3, 8]: 311 µM; HRED2 % Inhibition @ 100 μM ([4]; Table 7): 7%
Oc1cccc(O)c1O [Pyrogallol] | 5% | > 100 µM | > 100 µM | 7% | > 100 µM | 70 µM | – | inhibition at 100 µM [2, 9]: 28%; inhibition at 100 µM [3, 11]: 60%; HRED2 % Inhibition @ 100 μM ([4]; Table 7, 100 µM): 6%
Oc1cc(O)c2c(c1)O[C@H](c1cc(O)c(O)c(O)c1)[C@H](O)C2 [Epigallocatechin] | – | > 100 µM | > 100 µM | 15% | – | – | 1% | inhibition at 100 µM [2, 13]: 3%; inhibition at 100 µM ([2]; 100 μM, cell free assay, Table 5, read-out: HRED2 % Inhibition @ 100 μM): 30%; IC50 [2, 14]: > 100 µM; IC50 [2, 7]: > 100 µM; inhibition at 100 µM [3, 15]: 15%; inhibition at 100 µM ([3]; 100 μM, cell free assay, Table 5, read-out: HRED1 % Inhibition @ 100 μM): 61%; IC50 [3, 16]: > 100 µM; IC50 [3, 8]: 62 µM
COc1cc(CCNC(=O)C=Cc2ccc(O)c(O)c2)ccc1O [HZIV 90] | 34% | > 100 µM | > 100 µM | – | > 100 µM | > 100 µM | – | HRED2 % Inhibition @ 100 uM [2, 17]: 13%; HRED1 % Inhibition @ 100 uM [3, 17]: 23%; HRED2 % Inhibition @ 100 μM ([4]; Table 7): 14%
CCCCCCCCCCCCCCCCCC(=O)O [Stearic Acid, Stearic Acid C18:0] | – | > 100 µM | > 100 µM | 10% | – | – | 23% | inhibition at 100 µM ([2]; 100 μM, cell free assay, Table 6, read-out: HRED2 % Inhibition @ 100 μM): 35%; IC50 [2, 18]: > 100 µM; inhibition at 100 µM ([3]; 100 μM, cell free assay, Table 6, read-out: HRED1 % Inhibition @ 100 μM): 71%; IC50 [3, 19]: 27 µM
CCCCCCCC/C=C\CCCCCCCC(=O)O [Oleic Acid, Oleic Acid C18:1 CIS 9] | – | – | > 100 µM | 58% | – | – | 45% | IC50 ([1]; HCRED1 IC50, whole cell assay): 83 µM; IC50 [2]: 42 µM; inhibition at 100 µM ([2]; read-out: HRED2 % Inhibition @ 100 μM): 86%; IC50 [3]: 10 µM; inhibition at 100 µM ([3]; read-out: HRED1 % Inhibition @ 100 μM): 99%
COC(=O)c1cc(O)c(O)c(O)c1 [Methylgallate] | – | > 100 µM | > 100 µM | 0% | > 100 µM | > 100 µM | 0% | inhibition at 100 µM [2, 9]: 3%; inhibition at 100 µM [3, 11]: 5%
Oc1cc(O)c2c(c1)O[C@H](c1ccc(O)c(O)c1)[C@H](O)C2 [Epicatechin] | – | > 100 µM | > 100 µM | 0% | – | – | 1% | inhibition at 100 µM [2, 13]: 4%; IC50 [2, 14]: > 100 µM; inhibition at 100 µM [3, 15]: 14%; IC50 [3, 16]: > 100 µM
Oc1ccccc1O [Catechol] | – | > 100 µM | > 100 µM | 9% | > 100 µM | > 100 µM | 3% | inhibition at 100 µM ([2]; read-out: HRED2 % Inhibition @ 100 uM): 0%; inhibition at 100 µM ([3]; read-out: HRED1 % Inhibition @ 100 uM): 5%
CC(=O)OC1Cc2c(O)cc(O)cc2OC1c1cc(O)c(O)c(O)c1 (stereo not shown) [HZIV 145] | 8% | > 100 µM | > 100 µM | – | – | – | – | HRED2 % Inhibition @ 100 μM [2, 6]: 8%; IC50 [2, 7]: > 100 µM; HRED1 % Inhibition @ 100 μM [3, 6]: 35%; IC50 [3, 8]: > 100 µM; HRED2 % Inhibition @ 100 μM ([4]; Table 7): 9%
O=c1c(O)c(-c2ccc(O)c(O)c2)oc2cc(O)ccc12 [Fisetin] | – | > 100 µM | > 100 µM | 42% | – | – | 27% | inhibition at 100 µM [2, 13]: 4%; IC50 [2, 14]: > 100 µM; inhibition at 100 µM [3, 15]: 97%; IC50 [3, 16]: 57 µM; IC50 ([3]; cell-free assay, read-out: IC50, type 1 isoenzyme): < 100 µM

Now from value to compound, other results behind:

HRED1 % Inhibition @ 100 μM ([1]; whole cell assay) | IC50 [1, 5] | IC50 [4] | inhibition at 100 µM ([1]; whole cell assay) | IC50 [2, 10] | IC50 [3, 12] | inhibition at 100 µM ([4]; Table 7) | Compound | also measured
– | 79 µM | 20 µM | 60% | – | – | 85% | O=c1c(O)c(-c2ccc(O)cc2)oc2cc(O)cc(O)c12 [Kaempferol] | inhibition at 100 µM [2, 13]: 62%; IC50 [2, 14]: 12 µM; inhibition at 100 µM [3, 15]: 22%; IC50 [3, 16]: > 100 µM; inhibitory activity in the whole cell assay, type 2 isoenzyme, in words [4]: significant inhibitory activity
– | 8 µM | 7 µM | – | > 100 µM | 26 µM | – | O=C(/C=C/c1ccc(O)c(O)c1)OCCc1ccccc1 [Caffeic Acid Phenethyl Ester] | inhibitory activity in the whole cell assay, type 1 isoenzyme, in words ([1]; whole cell assay): active
79% | 3 µM | > 100 µM | – | > 100 µM | > 100 µM | – | COc1cc(C(=O)C=Cc2ccc(N(C)C)cc2)cc(OC)c1OC [HZIV-82] | inhibitory activity in the whole cell assay, type 1 isoenzyme, in words ([1]; whole cell assay): very active; HRED2 % Inhibition @ 100 uM [2, 17]: 0%; HRED1 % Inhibition @ 100 uM [3, 17]: 43%; inhibitory activity against type 1 isoenzyme, in words ([3]; cell-free assay): little activity; HRED2 % Inhibition @ 100 μM ([4]; Table 7): 15%
– | 40 µM | 25 µM | – | – | – | – | CCCCC/C=C\C/C=C\CCCCCCCC(=O)O [Linoleic Acid, Linoleic Acid C18:2 CIS 9,12] | IC50 [2, 18]: 19 µM; IC50 [3, 19]: 9 µM
83% | 43 µM | 62 µM | – | – | – | – | COc1cc(C(=O)OC2Cc3c(O)cc(O)cc3OC2c2cc(O)c(O)c(O)c2)cc(OC)c1O (stereo not shown) [HZIV 75] | HRED2 % Inhibition @ 100 μM [2, 6]: 21%; IC50 [2, 7]: > 100 µM; HRED1 % Inhibition @ 100 μM [3, 6]: 97%; IC50 [3, 8]: 29 µM; HRED2 % Inhibition @ 100 μM ([4]; Table 7): 72%
– | 3 µM | 7 µM | 99% | > 100 µM | 43 µM | 98% | CCCCCCCCCCCCOC(=O)c1cc(O)c(O)c(O)c1 [Dodecylgallate] | inhibitory activity in the whole cell assay, type 1 isoenzyme, in words ([1]; whole cell assay): active; inhibition at 100 µM [2, 9]: 36%; inhibition at 100 µM [3, 11]: 88%
